The first data set is described as follows: The drug is tested on Eubacterium hallii strain: DSM3353 for biotransformation. The drug concentrations were measured before and after a 12-h incubation by liquid-chromatography-coupled mass spectrometry (LC–MS). Particulars: anaerobutyricum hallii, 2 µM.
Regarding `N[C@@H](Cc1ccc(N(CCCl)CCCl)cc1)C(=O)O`, the “Bacterial Biotransformation” value is “Compound metabolized”.

For `CCc1oc2ccccc2c1C(=O)c1cc(Br)c(O)c(Br)c1` [BENZBROMARONE], the “Bacterial Biotransformation” value is given as “Compound NOT metabolized”.

Regarding `CCS(=O)(=O)CCn1c([N+](=O)[O-])cnc1C` [TINIDAZOLE], the “Bacterial Biotransformation” value is on record as “Compound metabolized”.

Another data set in a line: The drug is tested on Bacteroides fragilis strain: ATCC43859 for biotransformation. The drug concentrations were measured before and after a 12-h incubation by liquid-chromatography-coupled mass spectrometry (LC–MS). Particulars: 2 µM.
In the case of `N[C@@H](Cc1ccc(N(CCCl)CCCl)cc1)C(=O)O`, the “Bacterial Biotransformation” value is recorded as “Compound metabolized”.

For the compound `CCc1oc2ccccc2c1C(=O)c1cc(Br)c(O)c(Br)c1` [BENZBROMARONE], the “Bacterial Biotransformation” value was “Compound NOT metabolized”.

Consider `CCS(=O)(=O)CCn1c([N+](=O)[O-])cnc1C` [TINIDAZOLE], for which the “Bacterial Biotransformation” value was “Compound metabolized”.

A further data set can be described thus: The drug is tested on Bifidobacterium longum subsp. Infantis strain: CCUG52486 for biotransformation. The drug concentrations were measured before and after a 12-h incubation by liquid-chromatography-coupled mass spectrometry (LC–MS). Particulars: 2 µM.
For the compound `N[C@@H](Cc1ccc(N(CCCl)CCCl)cc1)C(=O)O`, the “Bacterial Biotransformation” value is “Compound metabolized”.

Take `CCc1oc2ccccc2c1C(=O)c1cc(Br)c(O)c(Br)c1` [BENZBROMARONE]: the “Bacterial Biotransformation” value is on record as “Compound NOT metabolized”.

As to `CCS(=O)(=O)CCn1c([N+](=O)[O-])cnc1C` [TINIDAZOLE], the “Bacterial Biotransformation” value was “Compound metabolized”.

A short description of the next data set: The drug is tested on Ruminococcus lactaris strain: ATCC29176 for biotransformation. The drug concentrations were measured before and after a 12-h incubation by liquid-chromatography-coupled mass spectrometry (LC–MS). The note with it: 2 µM.
With `N[C@@H](Cc1ccc(N(CCCl)CCCl)cc1)C(=O)O`, the “Bacterial Biotransformation” value was “Compound metabolized”.

For the compound `CCc1oc2ccccc2c1C(=O)c1cc(Br)c(O)c(Br)c1` [BENZBROMARONE], the “Bacterial Biotransformation” value is “Compound NOT metabolized”.

On to `CCS(=O)(=O)CCn1c([N+](=O)[O-])cnc1C` [TINIDAZOLE], for which the “Bacterial Biotransformation” value was “Compound metabolized”.

For another data set the following is noted: parabacteroides distasonis, 12 h, 2 µM.
Description: The drug is tested on Parabacteroides distasonis strain: ATCC8503 for biotransformation. The drug concentrations were measured before and after a 12-h incubation by liquid-chromatography-coupled mass spectrometry (LC–MS)
Consider `N[C@@H](Cc1ccc(N(CCCl)CCCl)cc1)C(=O)O`, for which the “Bacterial Biotransformation” value was “Compound metabolized”.

`CCc1oc2ccccc2c1C(=O)c1cc(Br)c(O)c(Br)c1` [BENZBROMARONE]: the “Bacterial Biotransformation” value is listed as “Compound NOT metabolized”.

For the compound `CCS(=O)(=O)CCn1c([N+](=O)[O-])cnc1C` [TINIDAZOLE], the “Bacterial Biotransformation” value is “Compound metabolized”.

The next data set is described as follows: The drug is tested on Bacteroides xylanisolvens strain: DSM18836 for biotransformation. The drug concentrations were measured before and after a 12-h incubation by liquid-chromatography-coupled mass spectrometry (LC–MS). Particulars: 2 µM.
As for `N[C@@H](Cc1ccc(N(CCCl)CCCl)cc1)C(=O)O`, the “Bacterial Biotransformation” value was “Compound metabolized”.

Take `CCc1oc2ccccc2c1C(=O)c1cc(Br)c(O)c(Br)c1` [BENZBROMARONE]: the “Bacterial Biotransformation” value was “Compound NOT metabolized”.

In the case of `CCS(=O)(=O)CCn1c([N+](=O)[O-])cnc1C` [TINIDAZOLE], the “Bacterial Biotransformation” value is recorded as “Compound metabolized”.

For another data set the following is noted: bacteroides fragilis, 12 h, 2 µM.
Description: The drug is tested on Bacteroides fragilis strain: 3397 (T10) for biotransformation. The drug concentrations were measured before and after a 12-h incubation by liquid-chromatography-coupled mass spectrometry (LC–MS)
For `N[C@@H](Cc1ccc(N(CCCl)CCCl)cc1)C(=O)O`, the “Bacterial Biotransformation” value is reported as “Compound metabolized”.

In the case of `CCc1oc2ccccc2c1C(=O)c1cc(Br)c(O)c(Br)c1` [BENZBROMARONE], the “Bacterial Biotransformation” value is given as “Compound NOT metabolized”.

Consider `CCS(=O)(=O)CCn1c([N+](=O)[O-])cnc1C` [TINIDAZOLE], for which the “Bacterial Biotransformation” value is listed as “Compound metabolized”.

The nature of the next data set: The drug is tested on Clostridium sporogenes strain: ATCC15579 for biotransformation. The drug concentrations were measured before and after a 12-h incubation by liquid-chromatography-coupled mass spectrometry (LC–MS). Particulars: 2 µM.
As to `N[C@@H](Cc1ccc(N(CCCl)CCCl)cc1)C(=O)O`, the “Bacterial Biotransformation” value is given as “Compound metabolized”.

Take `CCc1oc2ccccc2c1C(=O)c1cc(Br)c(O)c(Br)c1` [BENZBROMARONE]: the “Bacterial Biotransformation” value is recorded as “Compound NOT metabolized”.

For the compound `CCS(=O)(=O)CCn1c([N+](=O)[O-])cnc1C` [TINIDAZOLE], the “Bacterial Biotransformation” value is reported as “Compound metabolized”.

The nature of the next data set: The drug is tested on Odoribacter splanchnicus strain: fecal isolate for biotransformation. The drug concentrations were measured before and after a 12-h incubation by liquid-chromatography-coupled mass spectrometry (LC–MS). Particulars: 2 µM.
On to `N[C@@H](Cc1ccc(N(CCCl)CCCl)cc1)C(=O)O`, for which the “Bacterial Biotransformation” value is “Compound metabolized”.

Consider `CCc1oc2ccccc2c1C(=O)c1cc(Br)c(O)c(Br)c1` [BENZBROMARONE], for which the “Bacterial Biotransformation” value is “Compound NOT metabolized”.

On to `CCS(=O)(=O)CCn1c([N+](=O)[O-])cnc1C` [TINIDAZOLE], for which the “Bacterial Biotransformation” value was “Compound metabolized”.

For a further data set the following is noted: bacteroides thetaiotaomicron, 12 h, 2 µM.
Description: The drug is tested on Bacteroides thetaiotaomicron strain: 3731 for biotransformation. The drug concentrations were measured before and after a 12-h incubation by liquid-chromatography-coupled mass spectrometry (LC–MS)
As for `N[C@@H](Cc1ccc(N(CCCl)CCCl)cc1)C(=O)O`, the “Bacterial Biotransformation” value was “Compound metabolized”.

Take `CCc1oc2ccccc2c1C(=O)c1cc(Br)c(O)c(Br)c1` [BENZBROMARONE]: the “Bacterial Biotransformation” value is “Compound NOT metabolized”.

On to `CCS(=O)(=O)CCn1c([N+](=O)[O-])cnc1C` [TINIDAZOLE], for which the “Bacterial Biotransformation” value was “Compound metabolized”.

For the next data set the following is noted: anaerostipes sp., 12 h, 2 µM.
Description: The drug is tested on Anaerostipes sp. strain: fecal isolate for biotransformation. The drug concentrations were measured before and after a 12-h incubation by liquid-chromatography-coupled mass spectrometry (LC–MS)
As to `N[C@@H](Cc1ccc(N(CCCl)CCCl)cc1)C(=O)O`, the “Bacterial Biotransformation” value is recorded as “Compound metabolized”.

Consider `CCc1oc2ccccc2c1C(=O)c1cc(Br)c(O)c(Br)c1` [BENZBROMARONE], for which the “Bacterial Biotransformation” value is “Compound NOT metabolized”.

As to `CCS(=O)(=O)CCn1c([N+](=O)[O-])cnc1C` [TINIDAZOLE], the “Bacterial Biotransformation” value is recorded as “Compound metabolized”.

A further data set can be described thus: The drug is tested on Collinsella aerofaciens strain: ATCC25986 for biotransformation. The drug concentrations were measured before and after a 12-h incubation by liquid-chromatography-coupled mass spectrometry (LC–MS). The note with it: 2 µM.
For `N[C@@H](Cc1ccc(N(CCCl)CCCl)cc1)C(=O)O`, the “Bacterial Biotransformation” value was “Compound metabolized”.

Turning to `CCc1oc2ccccc2c1C(=O)c1cc(Br)c(O)c(Br)c1` [BENZBROMARONE], the “Bacterial Biotransformation” value is on record as “Compound NOT metabolized”.

For the compound `CCS(=O)(=O)CCn1c([N+](=O)[O-])cnc1C` [TINIDAZOLE], the “Bacterial Biotransformation” value is recorded as “Compound metabolized”.

Another data set is described as follows: The drug is tested on Clostridium scindens strain: ATCC35704 for biotransformation. The drug concentrations were measured before and after a 12-h incubation by liquid-chromatography-coupled mass spectrometry (LC–MS). The note with it: 2 µM.
`N[C@@H](Cc1ccc(N(CCCl)CCCl)cc1)C(=O)O`: the “Bacterial Biotransformation” value is “Compound metabolized”.

Take `CCc1oc2ccccc2c1C(=O)c1cc(Br)c(O)c(Br)c1` [BENZBROMARONE]: the “Bacterial Biotransformation” value was “Compound NOT metabolized”.

`CCS(=O)(=O)CCn1c([N+](=O)[O-])cnc1C` [TINIDAZOLE]: the “Bacterial Biotransformation” value was “Compound metabolized”.

A further data set can be described thus: The drug is tested on Providencia rettgeri strain: DSM1131 for biotransformation. The drug concentrations were measured before and after a 12-h incubation by liquid-chromatography-coupled mass spectrometry (LC–MS). Particulars: 2 µM. The class given is ADME. On the set-up: dose 2 uM, timepoint 0 vs 12 hours.
Regarding `N[C@@H](Cc1ccc(N(CCCl)CCCl)cc1)C(=O)O`, the “Bacterial Biotransformation” value is reported as “Compound metabolized”.

Regarding `CCc1oc2ccccc2c1C(=O)c1cc(Br)c(O)c(Br)c1` [BENZBROMARONE], the “Bacterial Biotransformation” value is given as “Compound NOT metabolized”.

Take `CCS(=O)(=O)CCn1c([N+](=O)[O-])cnc1C` [TINIDAZOLE]: the “Bacterial Biotransformation” value is listed as “Compound NOT metabolized”.

A short description of the next data set: The drug is tested on Coprococcus comes strain: ATCC27758 for biotransformation. The drug concentrations were measured before and after a 12-h incubation by liquid-chromatography-coupled mass spectrometry (LC–MS). The class given is ADME. On the set-up: dose 2 uM, timepoint 0 vs 12 hours. Particulars: 2 µM.
For the compound `N[C@@H](Cc1ccc(N(CCCl)CCCl)cc1)C(=O)O`, the “Bacterial Biotransformation” value was “Compound metabolized”.

`CCc1oc2ccccc2c1C(=O)c1cc(Br)c(O)c(Br)c1` [BENZBROMARONE]: the “Bacterial Biotransformation” value is recorded as “Compound NOT metabolized”.

As to `CCS(=O)(=O)CCn1c([N+](=O)[O-])cnc1C` [TINIDAZOLE], the “Bacterial Biotransformation” value was “Compound metabolized”.

A short description of a further data set: The drug is tested on Bacteroides fragilis strain: HMW615 for biotransformation. The drug concentrations were measured before and after a 12-h incubation by liquid-chromatography-coupled mass spectrometry (LC–MS). The note with it: 2 µM.
As for `N[C@@H](Cc1ccc(N(CCCl)CCCl)cc1)C(=O)O`, the “Bacterial Biotransformation” value is listed as “Compound metabolized”.

As for `CCc1oc2ccccc2c1C(=O)c1cc(Br)c(O)c(Br)c1` [BENZBROMARONE], the “Bacterial Biotransformation” value was “Compound NOT metabolized”.

For `CCS(=O)(=O)CCn1c([N+](=O)[O-])cnc1C` [TINIDAZOLE], the “Bacterial Biotransformation” value is listed as “Compound metabolized”.

The conditions of another data set: bacteroides intestinalis, 12 h, 2 µM.
Description: The drug is tested on Bacteroides intestinalis strain: DSM17393 for biotransformation. The drug concentrations were measured before and after a 12-h incubation by liquid-chromatography-coupled mass spectrometry (LC–MS)
With `N[C@@H](Cc1ccc(N(CCCl)CCCl)cc1)C(=O)O`, the “Bacterial Biotransformation” value is listed as “Compound metabolized”.

With `CCc1oc2ccccc2c1C(=O)c1cc(Br)c(O)c(Br)c1` [BENZBROMARONE], the “Bacterial Biotransformation” value is recorded as “Compound NOT metabolized”.

On to `CCS(=O)(=O)CCn1c([N+](=O)[O-])cnc1C` [TINIDAZOLE], for which the “Bacterial Biotransformation” value was “Compound metabolized”.

A short description of the next data set: The drug is tested on Enterobacter cancerogenus strain: ATCC35316 for biotransformation. The drug concentrations were measured before and after a 12-h incubation by liquid-chromatography-coupled mass spectrometry (LC–MS). The note with it: 2 µM.
Take `N[C@@H](Cc1ccc(N(CCCl)CCCl)cc1)C(=O)O`: the “Bacterial Biotransformation” value is “Compound metabolized”.

As for `CCc1oc2ccccc2c1C(=O)c1cc(Br)c(O)c(Br)c1` [BENZBROMARONE], the “Bacterial Biotransformation” value is “Compound NOT metabolized”.

In the case of `CCS(=O)(=O)CCn1c([N+](=O)[O-])cnc1C` [TINIDAZOLE], the “Bacterial Biotransformation” value was “Compound NOT metabolized”.

Another data set can be described thus: The drug is tested on Bacteroides caccae strain: ATCC43185 for biotransformation. The drug concentrations were measured before and after a 12-h incubation by liquid-chromatography-coupled mass spectrometry (LC–MS). The note with it: 2 µM.
`N[C@@H](Cc1ccc(N(CCCl)CCCl)cc1)C(=O)O`: the “Bacterial Biotransformation” value is “Compound metabolized”.

On to `CCc1oc2ccccc2c1C(=O)c1cc(Br)c(O)c(Br)c1` [BENZBROMARONE], for which the “Bacterial Biotransformation” value is recorded as “Compound NOT metabolized”.

In the case of `CCS(=O)(=O)CCn1c([N+](=O)[O-])cnc1C` [TINIDAZOLE], the “Bacterial Biotransformation” value is listed as “Compound metabolized”.

The nature of a further data set: The drug is tested on Bacteroides finegoldii strain: DSM17565 for biotransformation. The drug concentrations were measured before and after a 12-h incubation by liquid-chromatography-coupled mass spectrometry (LC–MS). The note with it: 2 µM.
Turning to `N[C@@H](Cc1ccc(N(CCCl)CCCl)cc1)C(=O)O`, the “Bacterial Biotransformation” value is “Compound metabolized”.

In the case of `CCc1oc2ccccc2c1C(=O)c1cc(Br)c(O)c(Br)c1` [BENZBROMARONE], the “Bacterial Biotransformation” value was “Compound NOT metabolized”.

For the compound `CCS(=O)(=O)CCn1c([N+](=O)[O-])cnc1C` [TINIDAZOLE], the “Bacterial Biotransformation” value is “Compound metabolized”.

These data come from ChEMBL document CHEMBL5303573, “Mapping human microbiome drug metabolism by gut bacteria and their genes” (Nature, 2019).
